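In this assay, cells in 96-well plates receive the compound at five concentrations for 48 hours. Endpoints are linearly interpolated between the surrounding concentrations. GI50 is the concentration that inhibits growth by half.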 Active and inactive are the calls of the source. Rule as the data show it: active = GI50 up to about 1.1 µM and inactive = higher.
Experiments:
Experiment in all cases: growth of human tumour cells (NCI), 48 h
[1] = tested on: 786-0
[2] = tested on: A498
[3] = tested on: A549
[4] = tested on: ACHN
[5] = tested on: BT-549
[6] = tested on: CAKI-1
[7] = tested on: CCRF-CEM
[8] = tested on: COLO 205
[9] = tested on: DU-145
[10] = tested on: EKVX
[11] = tested on: HCC 2998
[12] = tested on: HCT-116
[13] = tested on: HCT-15
[14] = tested on: HL-60
[15] = tested on: HOP-62
[16] = tested on: HOP-92
[17] = tested on: HT-29
[18] = tested on: Hs-578T
[19] = tested on: K562
[20] = tested on: KM12
[21] = tested on: LOX IMVI
[22] = tested on: M14
[23] = tested on: MCF7
[24] = tested on: MDA-MB-435
[25] = tested on: MOLT-4
[26] = tested on: Malme-3M
[27] = tested on: NCI-H23
[28] = tested on: NCI-H460
[29] = tested on: NCI-H522
[30] = tested on: NCI/ADR-RES
[31] = tested on: OVCAR-3
[32] = tested on: OVCAR-4
[33] = tested on: OVCAR-5
[34] = tested on: OVCAR-8
[35] = tested on: PC-3
[36] = tested on: RPMI-8226
[37] = tested on: RXF 393
[38] = tested on: SF-268
[39] = tested on: SF-295
[40] = tested on: SF-539
[41] = tested on: SK-MEL-28
[42] = tested on: SK-MEL-2
[43] = tested on: SK-MEL-5
[44] = tested on: SK-OV-3
[45] = tested on: SN12C
[46] = tested on: SNB-19
[47] = tested on: SNB-75
[48] = tested on: SW-620
[49] = tested on: T47D
[50] = tested on: TK-10
[51] = tested on: U-251
[52] = tested on: UACC-257
[53] = tested on: UO-31
[54] = tested on: IGROV-1
[55] = tested on: MDA-MB-231
[56] = tested on: MDA-N
[57] = tested on: NCI-H226
[58] = tested on: SR
[59] = tested on: UACC-62

COc1cc(Nc2c(C#N)[n+]([O-])c3ccccc3[n+]2[O-])cc(OC)c1OC
GI50 [1]: 20 µM (inactive)
GI50 [2]: 48.3 µM (inactive)
GI50 [3]: 43.8 µM (inactive)
GI50 [4]: 56.8 µM (inactive)
GI50 [5]: 97.5 µM (inactive)
GI50 [6]: 38.1 µM (inactive)
GI50 [7]: 27 µM (inactive)
GI50 [8]: 12.6 µM (inactive)
GI50 [9]: 43.3 µM (inactive)
GI50 [10]: 29 µM (inactive)
GI50 [11]: 18.4 µM (inactive)
GI50 [12]: 16.4 µM (inactive)
GI50 [13]: 15.6 µM
GI50 [14]: 41.2 µM (inactive)
GI50 [15]: 29 µM (inactive)
GI50 [16]: 28.1 µM (inactive)
GI50 [17]: 29.9 µM (inactive)
GI50 [18]: > 100 µM (inactive)
GI50 [19]: 39.1 µM (inactive)
GI50 [20]: 37.7 µM (inactive)
GI50 [21]: 26.7 µM (inactive)
GI50 [22]: 15 µM (inactive)
GI50 [23]: 24.2 µM (inactive)
GI50 [24]: 37.4 µM (inactive)
GI50 [25]: 42 µM (inactive)
GI50 [26]: 35.2 µM (inactive)
GI50 [27]: 19.6 µM (inactive)
GI50 [28]: 35.2 µM (inactive)
GI50 [29]: 29.1 µM (inactive)
GI50 [30]: 17.3 µM (inactive)
GI50 [31]: 25.6 µM (inactive)
GI50 [32]: > 100 µM (inactive)
GI50 [33]: 22.3 µM (inactive)
GI50 [34]: 31.9 µM (inactive)
GI50 [35]: 33.3 µM (inactive)
GI50 [36]: > 100 µM (inactive)
GI50 [37]: 33.8 µM (inactive)
GI50 [38]: 27.2 µM (inactive)
GI50 [39]: 46.3 µM (inactive)
GI50 [40]: 33.6 µM (inactive)
GI50 [41]: 19 µM (inactive)
GI50 [42]: 39.1 µM (inactive)
GI50 [43]: 19.6 µM (inactive)
GI50 [44]: 15.7 µM (inactive)
GI50 [45]: 35.8 µM (inactive)
GI50 [46]: 28.6 µM (inactive)
GI50 [47]: > 100 µM (inactive)
GI50 [48]: 29.9 µM (inactive)
GI50 [49]: 14.8 µM (inactive)
GI50 [50]: > 100 µM (inactive)
GI50 [51]: 38 µM (inactive)
GI50 [52]: 27.4 µM (inactive)
GI50 [53]: > 100 µM (inactive)

OCC1OC(n2cnc3c(SCc4ccccc4)ncnc32)C(O)C1O (stereo unspecified)
GI50 [1]: 27.5 µM (inactive)
GI50 [2]: 2.98 µM (inactive)
GI50 [3]: 26.3 µM (inactive)
GI50 [4]: 4.24 µM (inactive)
GI50 [5]: 16.6 µM (inactive)
GI50 [6]: 6.53 µM (inactive)
GI50 [7]: 0.169 µM (active)
GI50 [8]: 14 µM (inactive)
GI50 [9]: 5.35 µM (inactive)
GI50 [10]: > 68.5 µM (inactive)
GI50 [11]: 8.24 µM (inactive)
GI50 [12]: 5.45 µM (inactive)
GI50 [13]: 3.25 µM
GI50 [14]: 1.21 µM (inactive)
GI50 [15]: > 100 µM (inactive)
GI50 [16]: 4.75 µM (inactive)
GI50 [17]: 5.52 µM (inactive)
GI50 [54]: > 89.1 µM (inactive)
GI50 [19]: 3.15 µM (inactive)
GI50 [20]: > 100 µM (inactive)
GI50 [21]: 2.13 µM (inactive)
GI50 [22]: 99.3 µM (inactive)
GI50 [23]: 3.08 µM (inactive)
GI50 [55]: 5.48 µM (inactive)
GI50 [24]: > 100 µM (inactive)
GI50 [56]: > 100 µM (inactive)
GI50 [25]: 0.773 µM (active)
GI50 [26]: > 100 µM (inactive)
GI50 [57]: > 67.3 µM (inactive)
GI50 [27]: 4.86 µM (inactive)
GI50 [28]: > 44.7 µM (inactive)
GI50 [29]: 17.5 µM (inactive)
GI50 [30]: 10.2 µM (inactive)
GI50 [31]: 6.61 µM (inactive)
GI50 [32]: 11.8 µM (inactive)
GI50 [33]: > 96.2 µM (inactive)
GI50 [34]: 1.04 µM (active)
GI50 [35]: 4.94 µM (inactive)
GI50 [36]: 19.4 µM (inactive)
GI50 [37]: 20.2 µM (inactive)
GI50 [38]: 21.2 µM (inactive)
GI50 [39]: > 74.1 µM (inactive)
GI50 [40]: > 100 µM (inactive)
GI50 [41]: > 100 µM (inactive)
GI50 [42]: 96.8 µM (inactive)
GI50 [43]: > 100 µM (inactive)
GI50 [44]: > 89.3 µM (inactive)
GI50 [45]: 7.5 µM (inactive)
GI50 [46]: > 100 µM (inactive)
GI50 [47]: > 100 µM (inactive)
GI50 [58]: 2.9 µM (inactive)
GI50 [48]: 21.6 µM (inactive)
GI50 [49]: 40.5 µM (inactive)
GI50 [50]: > 21.8 µM (inactive)
GI50 [51]: > 100 µM (inactive)
GI50 [52]: > 100 µM (inactive)
GI50 [59]: 98.9 µM (inactive)
GI50 [53]: 23 µM (inactive)
